≈ marks a conversion by molar mass, not a printed value.
What was measured:
Type in all cases: functional
Staphylococcus aureus [1] = assay: Antibacterial activity against Staphylococcus aureus ATCC 29213 measured by Muller-Hinton broth based microdilution assay
Escherichia coli [2] = assay: Antibacterial activity against Escherichia coli measured by Muller-Hinton broth based microdilution assay
Staphylococcus aureus [3] = assay: Antibacterial activity against Staphylococcus aureus ATCC 25923 measured by Muller-Hinton broth based microdilution assay
Staphylococcus aureus [4] = assay: Antibacterial activity against methicillin-resistant Staphylococcus aureus N315 measured by Muller-Hinton broth based microdilution assay
Pseudomonas aeruginosa [5] = assay: Antibacterial activity against Pseudomonas aeruginosa measured by Muller-Hinton broth based microdilution assay
Enterococcus faecalis = assay: Antibacterial activity against Enterococcus faecalis measured by Muller-Hinton broth based microdilution assay
Pseudomonas aeruginosa [6] = assay: Antibacterial activity against Pseudomonas aeruginosa ATCC 27853 measured by Muller-Hinton broth based microdilution assay
Escherichia coli [7] = assay: Antibacterial activity against Escherichia coli ATCC 25922 measured by Muller-Hinton broth based microdilution assay
Acinetobacter baumannii = assay: Antibacterial activity against Acinetobacter baumannii measured by Muller-Hinton broth based microdilution assay
Staphylococcus aureus [8] = assay: Antibacterial activity against Staphylococcus aureus measured by Muller-Hinton broth based microdilution assay
Klebsiella pneumoniae = assay: Antibacterial activity against Klebsiella pneumoniae measured by Muller-Hinton broth based microdilution assay

Structure (SMILES)	MIC (Staphylococcus aureus [1]) [µg/mL]	MIC (Escherichia coli [2]) [µg/mL]	MIC (Staphylococcus aureus [3]) [µg/mL]	MIC (Staphylococcus aureus [4]) [µg/mL]	MIC (Pseudomonas aeruginosa [5]) [µg/mL]	MIC (Enterococcus faecalis) [µg/mL]	MIC (Pseudomonas aeruginosa [6]) [µg/mL]	MIC (Escherichia coli [7]) [µg/mL]	MIC (Acinetobacter baumannii) [µg/mL]	MIC (Staphylococcus aureus [8]) [µg/mL]	MIC (Klebsiella pneumoniae) [µg/mL]
O=C1c2cccc3c(N/N=C/c4ccc(C(F)(F)F)cc4)ccc(c23)C(=O)N1C(CO)CO	2 (≈ 4.37 µM)	32 (≈ 70 µM)	32 (≈ 70 µM)	64 (≈ 140 µM)	16 (≈ 35 µM)	4 (≈ 8.74 µM)	8 (≈ 17.5 µM)	32 (≈ 70 µM)	64 (≈ 140 µM)	8 (≈ 17.5 µM)	4 (≈ 8.74 µM)
Cc1ccc(/C=N/Nc2ccc3c4c(cccc24)C(=O)N(C(CO)CO)C3=O)cc1	4 (≈ 9.91 µM)	64 (≈ 159 µM)	32 (≈ 79.3 µM)	16 (≈ 39.7 µM)	64 (≈ 159 µM)	64 (≈ 159 µM)	1 (≈ 2.48 µM)	32 (≈ 79.3 µM)	64 (≈ 159 µM)	0.5 (≈ 1.24 µM)	8 (≈ 19.8 µM)
CCCCc1nc(Cl)c(/C=N/Nc2ccc3c4c(cccc24)C(=O)N(C(CO)CO)C3=O)[nH]1	32 (≈ 68.1 µM)	16 (≈ 34 µM)	64 (≈ 136 µM)	64 (≈ 136 µM)	64 (≈ 136 µM)	32 (≈ 68.1 µM)	8 (≈ 17 µM)	32 (≈ 68.1 µM)	64 (≈ 136 µM)	32 (≈ 68.1 µM)	8 (≈ 17 µM)
O=C1c2cccc3c(N/N=C/c4ncc[nH]4)ccc(c23)C(=O)N1C(CO)CO	128 (≈ 337 µM)	16 (≈ 42.2 µM)	64 (≈ 169 µM)	64 (≈ 169 µM)	8 (≈ 21.1 µM)	64 (≈ 169 µM)	4 (≈ 10.5 µM)	64 (≈ 169 µM)	64 (≈ 169 µM)	32 (≈ 84.3 µM)	64 (≈ 169 µM)
O=C1c2cccc3c(N/N=C/c4ccc(O)c([N+](=O)[O-])c4)ccc(c23)C(=O)N1C(CO)CO	8 (≈ 17.8 µM)	32 (≈ 71 µM)	4 (≈ 8.88 µM)	64 (≈ 142 µM)	32 (≈ 71 µM)	16 (≈ 35.5 µM)	8 (≈ 17.8 µM)	32 (≈ 71 µM)	32 (≈ 71 µM)	4 (≈ 8.88 µM)	4 (≈ 8.88 µM)
O=C1c2cccc3c(N/N=C/c4cccc(O)c4)ccc(c23)C(=O)N1C(CO)CO	256 (≈ 631 µM)	256 (≈ 631 µM)	32 (≈ 78.9 µM)	128 (≈ 316 µM)	256 (≈ 631 µM)	128 (≈ 316 µM)	256 (≈ 631 µM)	256 (≈ 631 µM)	256 (≈ 631 µM)	256 (≈ 631 µM)	128 (≈ 316 µM)
O=C1c2cccc3c(N/N=C/c4cccs4)ccc(c23)C(=O)N1C(CO)CO	8 (≈ 20.2 µM)	32 (≈ 80.9 µM)	64 (≈ 162 µM)	4 (≈ 10.1 µM)	64 (≈ 162 µM)	16 (≈ 40.5 µM)	32 (≈ 80.9 µM)	32 (≈ 80.9 µM)	64 (≈ 162 µM)	64 (≈ 162 µM)	4 (≈ 10.1 µM)
O=C1c2cccc3c(N/N=C/c4ccc(F)cc4)ccc(c23)C(=O)N1C(CO)CO	4 (≈ 9.82 µM)	64 (≈ 157 µM)	32 (≈ 78.5 µM)	64 (≈ 157 µM)	8 (≈ 19.6 µM)	64 (≈ 157 µM)	32 (≈ 78.5 µM)	64 (≈ 157 µM)	32 (≈ 78.5 µM)	64 (≈ 157 µM)	32 (≈ 78.5 µM)
CCCCCCCCCCCCCCCCn1cc(/C=N/Nc2ccc3c4c(cccc24)C(=O)N(C(CO)CO)C3=O)c2ccccc21	64 (≈ 98 µM)	32 (≈ 49 µM)	32 (≈ 49 µM)	64 (≈ 98 µM)	64 (≈ 98 µM)	64 (≈ 98 µM)	32 (≈ 49 µM)	64 (≈ 98 µM)	64 (≈ 98 µM)	8 (≈ 12.3 µM)	32 (≈ 49 µM)
CCCCCCCCn1cc(/C=N/Nc2ccc3c4c(cccc24)C(=O)N(C(CO)CO)C3=O)c2ccccc21	64 (≈ 118 µM)	32 (≈ 59.2 µM)	16 (≈ 29.6 µM)	64 (≈ 118 µM)	128 (≈ 237 µM)	64 (≈ 118 µM)	64 (≈ 118 µM)	128 (≈ 237 µM)	64 (≈ 118 µM)	32 (≈ 59.2 µM)	16 (≈ 29.6 µM)
O=C1c2cccc3c(N/N=C/c4ccco4)ccc(c23)C(=O)N1C(CO)CO	32 (≈ 84.3 µM)	32 (≈ 84.3 µM)	32 (≈ 84.3 µM)	32 (≈ 84.3 µM)	32 (≈ 84.3 µM)	32 (≈ 84.3 µM)	16 (≈ 42.2 µM)	64 (≈ 169 µM)	32 (≈ 84.3 µM)	32 (≈ 84.3 µM)	64 (≈ 169 µM)
CCCCCCCCCCCCn1cc(/C=N/Nc2ccc3c4c(cccc24)C(=O)N(C(CO)CO)C3=O)c2ccccc21	64 (≈ 107 µM)	32 (≈ 53.6 µM)	32 (≈ 53.6 µM)	64 (≈ 107 µM)	128 (≈ 214 µM)	64 (≈ 107 µM)	32 (≈ 53.6 µM)	64 (≈ 107 µM)	64 (≈ 107 µM)	8 (≈ 13.4 µM)	64 (≈ 107 µM)
O=C1c2cccc3c(N/N=C/c4cc(Cl)ccc4O)ccc(c23)C(=O)N1C(CO)CO	64 (≈ 146 µM)	64 (≈ 146 µM)	2 (≈ 4.55 µM)	1 (≈ 2.27 µM)	2 (≈ 4.55 µM)	16 (≈ 36.4 µM)	32 (≈ 72.8 µM)	32 (≈ 72.8 µM)	32 (≈ 72.8 µM)	32 (≈ 72.8 µM)	64 (≈ 146 µM)
O=C1c2cccc3c(N/N=C/c4ccncc4)ccc(c23)C(=O)N1C(CO)CO	128 (≈ 328 µM)	32 (≈ 82 µM)	64 (≈ 164 µM)	64 (≈ 164 µM)	2 (≈ 5.12 µM)	64 (≈ 164 µM)	1 (≈ 2.56 µM)	64 (≈ 164 µM)	64 (≈ 164 µM)	4 (≈ 10.2 µM)	64 (≈ 164 µM)
O=C1c2cccc3c(N/N=C/c4ccc(O)cc4O)ccc(c23)C(=O)N1C(CO)CO	64 (≈ 152 µM)	64 (≈ 152 µM)	16 (≈ 38 µM)	16 (≈ 38 µM)	64 (≈ 152 µM)	16 (≈ 38 µM)	32 (≈ 75.9 µM)	32 (≈ 75.9 µM)	64 (≈ 152 µM)	16 (≈ 38 µM)	4 (≈ 9.49 µM)
O=C1c2cccc3c(N/N=C/c4ccccc4Cl)ccc(c23)C(=O)N1C(CO)CO	8 (≈ 18.9 µM)	128 (≈ 302 µM)	32 (≈ 75.5 µM)	64 (≈ 151 µM)	16 (≈ 37.7 µM)	64 (≈ 151 µM)	32 (≈ 75.5 µM)	64 (≈ 151 µM)	64 (≈ 151 µM)	64 (≈ 151 µM)	16 (≈ 37.7 µM)
O=C1c2cccc3c(N/N=C/c4cc(=O)oc5cc(O)ccc45)ccc(c23)C(=O)N1C(CO)CO	8 (≈ 16.9 µM)	64 (≈ 135 µM)	8 (≈ 16.9 µM)	32 (≈ 67.6 µM)	64 (≈ 135 µM)	128 (≈ 270 µM)	4 (≈ 8.45 µM)	32 (≈ 67.6 µM)	64 (≈ 135 µM)	4 (≈ 8.45 µM)	4 (≈ 8.45 µM)
O=C1c2cccc3c(N/N=C/c4ccc(Cl)cc4)ccc(c23)C(=O)N1C(CO)CO	128 (≈ 302 µM)	64 (≈ 151 µM)	64 (≈ 151 µM)	16 (≈ 37.7 µM)	32 (≈ 75.5 µM)	32 (≈ 75.5 µM)	32 (≈ 75.5 µM)	64 (≈ 151 µM)	128 (≈ 302 µM)	32 (≈ 75.5 µM)	16 (≈ 37.7 µM)
O=C1c2cccc3c(N/N=C/c4ccccc4O)ccc(c23)C(=O)N1C(CO)CO	16 (≈ 39.5 µM)	32 (≈ 78.9 µM)	32 (≈ 78.9 µM)	2 (≈ 4.93 µM)	64 (≈ 158 µM)	16 (≈ 39.5 µM)	64 (≈ 158 µM)	32 (≈ 78.9 µM)	64 (≈ 158 µM)	16 (≈ 39.5 µM)	4 (≈ 9.87 µM)
O=C1c2cccc3c(N/N=C/c4ccc(O)c(O)c4O)ccc(c23)C(=O)N1C(CO)CO	64 (≈ 146 µM)	64 (≈ 146 µM)	32 (≈ 73.2 µM)	16 (≈ 36.6 µM)	64 (≈ 146 µM)	8 (≈ 18.3 µM)	4 (≈ 9.14 µM)	16 (≈ 36.6 µM)	16 (≈ 36.6 µM)	4 (≈ 9.14 µM)	2 (≈ 4.57 µM)
CCCCCCCCCCn1cc(/C=N/Nc2ccc3c4c(cccc24)C(=O)N(C(CO)CO)C3=O)c2ccccc21	32 (≈ 56.3 µM)	32 (≈ 56.3 µM)	16 (≈ 28.1 µM)	64 (≈ 113 µM)	128 (≈ 225 µM)	64 (≈ 113 µM)	32 (≈ 56.3 µM)	32 (≈ 56.3 µM)	64 (≈ 113 µM)	16 (≈ 28.1 µM)	16 (≈ 28.1 µM)
O=C1c2cccc3c(N/N=C/c4ccccc4F)ccc(c23)C(=O)N1C(CO)CO	16 (≈ 39.3 µM)	32 (≈ 78.5 µM)	64 (≈ 157 µM)	32 (≈ 78.5 µM)	32 (≈ 78.5 µM)	2 (≈ 4.91 µM)	8 (≈ 19.6 µM)	32 (≈ 78.5 µM)	64 (≈ 157 µM)	8 (≈ 19.6 µM)	32 (≈ 78.5 µM)
O=C1c2cccc3c(N/N=C/c4ccc(O)c(Br)c4)ccc(c23)C(=O)N1C(CO)CO	64 (≈ 132 µM)	64 (≈ 132 µM)	64 (≈ 132 µM)	8 (≈ 16.5 µM)	64 (≈ 132 µM)	4 (≈ 8.26 µM)	16 (≈ 33 µM)	32 (≈ 66.1 µM)	64 (≈ 132 µM)	16 (≈ 33 µM)	16 (≈ 33 µM)
O=C1c2cccc3c(N/N=C/c4ccc(Cl)cc4Cl)ccc(c23)C(=O)N1C(CO)CO	8 (≈ 17.5 µM)	256 (≈ 559 µM)	8 (≈ 17.5 µM)	32 (≈ 69.8 µM)	128 (≈ 279 µM)	64 (≈ 140 µM)	128 (≈ 279 µM)	256 (≈ 559 µM)	128 (≈ 279 µM)	32 (≈ 69.8 µM)	128 (≈ 279 µM)
O=C1c2cccc3c(N/N=C/c4nccs4)ccc(c23)C(=O)N1C(CO)CO	32 (≈ 80.7 µM)	32 (≈ 80.7 µM)	16 (≈ 40.4 µM)	32 (≈ 80.7 µM)	32 (≈ 80.7 µM)	32 (≈ 80.7 µM)	16 (≈ 40.4 µM)	32 (≈ 80.7 µM)	32 (≈ 80.7 µM)	64 (≈ 161 µM)	64 (≈ 161 µM)
O=C(Cn1cc(/C=N/Nc2ccc3c4c(cccc24)C(=O)N(C(CO)CO)C3=O)c2ccccc21)N1CCOCC1	128 (≈ 230 µM)	256 (≈ 461 µM)	64 (≈ 115 µM)	256 (≈ 461 µM)	256 (≈ 461 µM)	128 (≈ 230 µM)	128 (≈ 230 µM)	256 (≈ 461 µM)	128 (≈ 230 µM)	128 (≈ 230 µM)	256 (≈ 461 µM)
O=C1c2cccc3c(N/N=C/c4nc5ccccc5[nH]4)ccc(c23)C(=O)N1C(CO)CO	128 (≈ 298 µM)	8 (≈ 18.6 µM)	64 (≈ 149 µM)	64 (≈ 149 µM)	16 (≈ 37.3 µM)	64 (≈ 149 µM)	64 (≈ 149 µM)	32 (≈ 74.5 µM)	64 (≈ 149 µM)	32 (≈ 74.5 µM)	32 (≈ 74.5 µM)
